Reference: patent publication US20250230193A1, “CYCLIC COMPOUND HAVING SELECTIVE KRAS INHIBITORY EFFECT ON HRAS AND NRAS” (CHUGAI SEIYAKU KABUSHIKI KAISHA, priority 2022, published 2025)
pIC50, pKd: −log10 of the molar value. Read-outs that look alike come from different tables or passages of the source.

Experiments:
[1] = molecular target: GDP-bound KRAS wild-type protein (Homo sapiens, UniProt P01116); assay: Binding to KRAS by surface plasmon resonance (SPR), Single Cycle Kinetics; conditions: GDP-bound KRAS wild-type protein
[2] = molecular target: GDP-bound NRAS wild-type protein (Homo sapiens, UniProt P01111); assay: Binding to NRAS by surface plasmon resonance (SPR), Single Cycle Kinetics; conditions: SPR; for NRAS/KRAS (ratio of KD value for GDP-bound NRAS wild-type protein to KD value for KRAS): KD ratio class
[3] = tested on: human lung cancer strain NCI-H441
[4] = molecular target: GDP-bound HRAS wild-type protein (Homo sapiens, UniProt P01112); assay: Binding to HRAS by surface plasmon resonance (SPR), Single Cycle Kinetics; conditions: SPR; for HRAS/KRAS (ratio of KD value for GDP-bound HRAS wild-type protein to KD value for KRAS): KD ratio class
[5] = read-out: NCI-H441 IC50, NCI-H441 cells, 4 days, CellTiter-Glo
[6] = SPR Single Cycle Kinetics, 1:1 binding model

Chain of GDP-bound NRAS wild-type protein (P01111 whole entry): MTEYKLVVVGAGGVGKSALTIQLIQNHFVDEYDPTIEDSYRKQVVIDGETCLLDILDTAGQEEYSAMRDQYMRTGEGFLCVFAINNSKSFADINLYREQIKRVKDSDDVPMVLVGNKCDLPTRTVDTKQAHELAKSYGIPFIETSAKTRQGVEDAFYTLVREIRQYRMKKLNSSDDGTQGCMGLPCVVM
Chain of GDP-bound HRAS wild-type protein (P01112 whole entry): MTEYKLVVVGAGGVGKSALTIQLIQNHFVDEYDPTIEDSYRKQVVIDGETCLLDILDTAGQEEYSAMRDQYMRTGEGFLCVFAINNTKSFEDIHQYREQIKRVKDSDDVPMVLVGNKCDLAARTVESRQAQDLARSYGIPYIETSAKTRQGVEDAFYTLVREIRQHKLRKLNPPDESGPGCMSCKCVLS

| pKd ([1]; SPR, Single Cycle Kinetics) | pIC50 [3, 5] | pKd [1, 6] | pIC50 [3] | Compound | NRAS/KRAS (ratio of KD value for GDP-bound NRAS wild-type protein to KD value for KRAS) [2] | HRAS/KRAS (ratio of KD value for GDP-bound HRAS wild-type protein to KD value for KRAS) [4] | NRAS/KRAS (ratio of KD value with respect to GDP-bound NRAS wild-type protein to KD value with respect to KRAS) [2] | HRAS/KRAS (ratio of KD value with respect to GDP-bound HRAS wild-type protein to KD value with respect to KRAS) [4] |
| --- | --- | --- | --- | --- | --- | --- | --- | --- |
| 9.85 | 7.48 |  |  | CCO[C@@H]1C[C@H]2C(=O)NC3(CCC3)C(=O)N(C)[C@@H](C3CCCC3)C(=O)N(C)[C@H](C(=O)N(C)C)CC(=O)N(C)[C@@H](CC)C(=O)N[C@@H]([C@@H](C)CC)C(=O)N(C)CC(=O)N(C)[C@H]3C/C=C\CCN(C3=O)[C@@H](CC3CCCCC3)C(=O)N(C)CC(=O)N[C@@H](CCc3cc(F)c(C(F)(F)F)c(F)c3)C(=O)N2C1 [PP1466] | A (a compound having 10 or more and less than 20 is denoted as A) | A (a compound having 10 or more and less than 20 is denoted as A) |  |  |
| 10.35 | 7.92 |  |  | CCO[C@@H]1C[C@H]2C(=O)NC3(CCC3)C(=O)N(C)[C@@H](C3CCCC3)C(=O)N(C)[C@H](C(=O)N(C)C)CC(=O)N(C)[C@@H](COC3CC3)C(=O)N[C@@H]([C@@H](C)CC)C(=O)N(C)CC(=O)N(C)[C@H]3C/C=C\CCN(C3=O)[C@@H](Cc3ccc(C(F)(F)F)cc3)C(=O)N(C)CC(=O)N[C@@H](CCc3cc(F)c(C(F)(F)F)c(F)c3)C(=O)N2C1 [PP1268] | A (a compound having 10 or more and less than 20 is denoted as A) | A (a compound having 10 or more and less than 20 is denoted as A) |  |  |
| 10.14 | 8.43 |  |  | CCCC[C@H]1C(=O)N[C@@H]([C@@H](C)CC)C(=O)N(C)CC(=O)N(C)[C@H]2C/C=C\CCN(C2=O)[C@@H](Cc2ccc(C(F)(F)F)cc2)C(=O)N(C)CC(=O)N[C@@H](CCc2cc(F)c(C(F)(F)F)c(F)c2)C(=O)N2C[C@H](OCC)C[C@H]2C(=O)NC2(CCCC2)C(=O)N(C)[C@@H](C2CCCC2)C(=O)N(C)[C@H](C(=O)N(C)C)CC(=O)N1C [PP1397] | A (a compound having 10 or more and less than 20 is denoted as A) | A (a compound having 10 or more and less than 20 is denoted as A) |  |  |
| 9.92 | 7.05 |  |  | CCO[C@@H]1C[C@H]2C(=O)NC3(CCCC3)C(=O)N(C)[C@@H](C3CCCC3)C(=O)N(C)[C@H](C(=O)N(C)C)CC(=O)N(C)[C@@H](C)C(=O)N[C@@H]([C@@H](C)CC)C(=O)N(C)CC(=O)N(C)[C@H]3C/C=C\CCN(C3=O)[C@@H](CC3CCC(F)(F)CC3)C(=O)N(C)CC(=O)N[C@@H](CCc3cc(F)c(C(F)(F)F)c(F)c3)C(=O)N2C1 [PP1456] | A (a compound having 10 or more and less than 20 is denoted as A) | A (a compound having 10 or more and less than 20 is denoted as A) |  |  |
| 10.49 | 8.64 |  |  | CCCOC[C@H]1C(=O)N[C@@H]([C@@H](C)CC)C(=O)N(C)CC(=O)N(C)[C@H]2C/C=C\CCN(C2=O)[C@@H](Cc2ccc(C(F)(F)F)cc2)C(=O)N(C)CC(=O)N[C@@H](CCc2cc(F)c(C(F)(F)F)c(F)c2)C(=O)N2C[C@H](OCC)C[C@H]2C(=O)NC2(CC(C)(C)C2)C(=O)N(C)[C@@H](C2CCCC2)C(=O)N(C)[C@H](C(=O)N(C)C)CC(=O)N1C [PP1398] | A (a compound having 10 or more and less than 20 is denoted as A) | A (a compound having 10 or more and less than 20 is denoted as A) |  |  |
| 10.18 | 7.68 |  |  | CCO[C@@H]1C[C@H]2C(=O)NC3(CCCC3)C(=O)N(C)[C@@H](C3CCCC3)C(=O)N(C)[C@H](C(=O)N(C)C)CC(=O)N(C)[C@@H](CC)C(=O)N[C@@H]([C@@H](C)CC)C(=O)N(C)CC(=O)N(C)[C@H]3C/C=C\CCN(C3=O)[C@@H](Cc3ccc(C(F)(F)F)cc3)C(=O)N(C)CC(=O)N[C@@H](CCc3cc(F)c(C(F)(F)F)c(F)c3)C(=O)N2C1 [PP1276] | A (a compound having 10 or more and less than 20 is denoted as A) | B (a compound having 3 or more and less than 10 is denoted as B) |  |  |
|  |  | 8.15 | 6.80 | CC[C@H](C)[C@@H]1NC(=O)[C@H](CC(C)C)N(C)C(=O)C[C@@H](C(=O)N(C)C)N(C)C(=O)[C@H](C2CCCC2)N(C)C(=O)C2(CCCC2)NC(=O)[C@@H]2CCCN2C(=O)[C@H](CCc2ccc(C(F)(F)F)c(Cl)c2)NC(=O)CN(C)C(=O)[C@H](Cc2ccc(C(F)(F)F)cc2)N2C/C=C\COC[C@@H](C2=O)N(C)C(=O)CN(C)C1=O [PP0626] |  |  | C (A compound having a KD ratio of 0.1 or more and less than 3 is denoted as C) | C (A compound having a KD ratio of 0.1 or more and less than 3 is denoted as C) |
|  |  | 8.16 | 6.80 | CC[C@H](C)[C@@H]1NC(=O)[C@H](CC(C)C)N(C)C(=O)C[C@@H](C(=O)N(C)C)N(C)C(=O)[C@H](C2CCCC2)N(C)C(=O)C2(CCCC2)NC(=O)C2CCCN2C(=O)[C@H](CCc2ccc(C(F)(F)F)c(Cl)c2)NC(=O)CN(C)C(=O)[C@H](Cc2ccc(C(F)(F)F)cc2)N2CC/C=C(/C)C[C@@H](C2=O)N(C)C(=O)CN(C)C1=O (some centres unmarked) [PP0617] |  |  | B (a compound having 3 or more and less than 10 is denoted as B) | B (a compound having 3 or more and less than 10 is denoted as B) |
| 10.22 | 8.43 |  |  | CCO[C@@H]1C[C@H]2C(=O)NC3(CCC3)C(=O)N(C)[C@@H](C3CCCC3)C(=O)N(C)[C@H](C(=O)N(C)C)CC(=O)N(C)[C@@H](CC(C)C)C(=O)N[C@@H]([C@@H](C)CC)C(=O)N(C)CC(=O)N(C)[C@H]3C/C=C\CCN(C3=O)[C@@H](Cc3ccc(C(F)(F)F)cc3)C(=O)N(C)CC(=O)N[C@@H](CCc3ccc(C(F)(F)F)c(OC)c3)C(=O)N2C1 [PP1245] | A (a compound having 10 or more and less than 20 is denoted as A) | B (a compound having 3 or more and less than 10 is denoted as B) |  |  |
| 9.12 | 7.44 |  |  | CCO[C@@H]1C[C@H]2C(=O)NC3(CC(F)(F)C3)C(=O)N(C)[C@@H](C3CCCC3)C(=O)N(C)C(C(C)C)CC(=O)N(C)[C@@H](CC3CC3)C(=O)N[C@@H]([C@@H](C)CC)C(=O)N(C)CC(=O)N(C)[C@H]3C/C=C\CCN(C3=O)[C@@H](Cc3ccc(C(F)(F)F)cc3)C(=O)N(C)CC(=O)N[C@@H](CCc3cc(F)c(C(F)(F)F)c(F)c3)C(=O)N2C1 (some centres unmarked) [PP1598] | A (a compound having 10 or more and less than 20 is denoted as A) | A (a compound having 10 or more and less than 20 is denoted as A) |  |  |
| 9.96 | 7.46 |  |  | CC[C@H](C)[C@@H]1NC(=O)[C@H](CC2CC2)N(C)C(=O)C[C@@H](C(=O)N2CCCC2)N(C)C(=O)[C@H](C2CCCC2)N(C)C(=O)C2(CCC2)NC(=O)[C@@H]2C[C@H](C)CN2C(=O)[C@H](CCc2cc(F)c(C(F)(F)F)c(F)c2)NC(=O)CN(C)C(=O)[C@H](Cc2ccc(C(F)(F)F)cc2)N2CC/C=C\C[C@@H](C2=O)N(C)C(=O)CN(C)C1=O [PP1510] | AA (a compound having 20 or more is denoted as AA) | A (a compound having 10 or more and less than 20 is denoted as A) |  |  |
| 9.82 | 7.52 |  |  | CC[C@H](C)[C@@H]1NC(=O)[C@H](CC)N(C)C(=O)C[C@@H](C(=O)N(C)C)N(C)C(=O)[C@H](C2CCCC2)N(C)C(=O)C2(CCC2)NC(=O)[C@@H]2C[C@H](C)CN2C(=O)[C@H](CCc2cc(F)c(C(F)(F)F)c(F)c2)NC(=O)CN(C)C(=O)[C@H](CC2CCC(F)(F)CC2)N2CC/C=C\C[C@@H](C2=O)N(C)C(=O)CN(C)C1=O [PP1457] | A (a compound having 10 or more and less than 20 is denoted as A) | A (a compound having 10 or more and less than 20 is denoted as A) |  |  |
| 9.12 | 7.07 |  |  | CCO[C@@H]1C[C@H]2C(=O)NC3(CC(F)(F)C3)C(=O)N(C)[C@@H](C3CCCC3)C(=O)N(C)C(C3CCCCC3)CC(=O)N(C)[C@@H](COC)C(=O)N[C@@H]([C@@H](C)CC)C(=O)N(C)CC(=O)N(C)[C@H]3C/C=C\CCN(C3=O)[C@@H](Cc3ccc(C(F)(F)F)cc3)C(=O)N(C)CC(=O)N[C@@H](CCc3cc(F)c(C(F)(F)F)c(F)c3)C(=O)N2C1 (some centres unmarked) [PP1586] | A (a compound having 10 or more and less than 20 is denoted as A) | A (a compound having 10 or more and less than 20 is denoted as A) |  |  |
| 9.85 | 7.21 |  |  | CC[C@H](C)[C@@H]1NC(=O)[C@H](CC)N(C)C(=O)C[C@@H](C(=O)N(C)C)N(C)C(=O)[C@H](C2CCCC2)N(C)C(=O)C2(CCC2)NC(=O)[C@@H]2C[C@@H](C(F)(F)F)CN2C(=O)[C@H](CCc2cc(F)c(C(F)(F)F)c(F)c2)NC(=O)CN(C)C(=O)[C@H](CC2CCC(F)(F)CC2)N2CC/C=C\C[C@@H](C2=O)N(C)C(=O)CN(C)C1=O [PP1451] | A (a compound having 10 or more and less than 20 is denoted as A) | A (a compound having 10 or more and less than 20 is denoted as A) |  |  |
